Results: patent US10023557B2 (LifeSci Pharmaceuticals, Inc., priority 2015, dated 2018)

Columns and labels:
human plasma kallikrein = human plasma kallikrein (Homo sapiens (Human), UniProt P03952); experiment: In vitro enzyme inhibition of human plasma kallikrein (PFR-AMC cleavage); type: biochemical; details: Pro-Phe-Arg-AMC substrate, 37° C., read-out: hPK IC50
Procedure, shortened: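 Human plasma kallikrein and compound, diluted in 50 mM Tris-HCl pH 7.5, 150 mM NaCl, 0.01% Triton X-100, preincubated 5 min at 37 °C before PFR-AMC was added.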

[1] = molecular target: cellular kallikrein activity (Homo sapiens (Human), UniProt P03952); experiment: In vitro cellular assay (contact assay): kallikrein activity in ellagic acid-activated human plasma, Z-FR-2-AMC substrate; type: biochemical; details: human plasma activated with ellagic acid, 37° C.
cellular kallikrein activity, sequence (P03952 391-638): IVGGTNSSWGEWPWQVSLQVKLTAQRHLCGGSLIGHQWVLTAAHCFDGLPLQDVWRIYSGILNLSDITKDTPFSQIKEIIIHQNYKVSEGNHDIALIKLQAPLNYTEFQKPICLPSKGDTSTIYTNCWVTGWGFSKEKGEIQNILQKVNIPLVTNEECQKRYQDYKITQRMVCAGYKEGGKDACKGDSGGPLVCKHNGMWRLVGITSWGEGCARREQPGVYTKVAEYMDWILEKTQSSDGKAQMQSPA
cellular kallikrein activity, sequence (P03952 20-390 partner): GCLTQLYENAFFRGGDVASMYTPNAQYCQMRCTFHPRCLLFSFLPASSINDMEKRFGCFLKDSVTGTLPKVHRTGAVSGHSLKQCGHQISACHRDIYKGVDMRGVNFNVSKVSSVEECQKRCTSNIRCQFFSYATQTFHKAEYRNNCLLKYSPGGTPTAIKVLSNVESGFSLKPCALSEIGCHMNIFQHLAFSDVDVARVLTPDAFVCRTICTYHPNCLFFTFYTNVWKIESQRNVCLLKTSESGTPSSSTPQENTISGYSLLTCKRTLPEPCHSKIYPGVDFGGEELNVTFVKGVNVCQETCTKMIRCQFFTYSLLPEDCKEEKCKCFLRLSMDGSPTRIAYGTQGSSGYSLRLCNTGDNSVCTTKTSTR
Experimental: The ability of the compounds disclosed herein to inhibit cellular kallikrein activity was quantified and the respective EC50 value was determined.
All dilutions were prepared in an assay buffer comprising 50 mM Tris-HCl pH 7.2, 150 mM NaCl, and 0.01% Triton X-100.
The ten solutions of the test compounds, prepared by serial dilution, were further diluted 50-fold in the assay buffer.
Human plasma is thawed on ice and centrifuged for 15 min at 4° C. to remove platelets. A 1 mM stock solution of ellagic acid is diluted to 8 μM and mixed with human plasma, after removing platelets, at a ratio of 1:0.8.
A 22.5 μL volume of the final mixture of human plasma and ellagic acid was added to a 96-well microwell plate and the plate was incubated for 15 min at 37° C.
The CINH inhibitor at various concentrations, prepared by serial dilutions as described above, were added to the inhibitor control wells. […] Each CINH concentration is tested in duplicates.
The test compounds at various concentrations, also prepared by serial dilutions as described above, are added to the test wells. […] Each test compound concentration was tested in duplicates.
In addition to the inhibitor control and test wells, the 96 well assay plate includes positive control wells which contained the mixture of human plasma and ellagic acid without C1NH inhibitor or test compounds, and background wells which contained neither the mixture of human plasma and ellagic acid nor the test compounds. The total volume of liquid in positive control and background wells was brought up to 35 μL, using the assay buffer.
The assay plate containing C1NH inhibitors and test compounds mixed with human plasma and ellagic acid and appropriate controls was incubated at 37° C. for 5 min. […] The reagents were mixed well by shaking the plate gently for 30 sec.
The enzyme reaction was quantified by immediate kinetic reading of the assay plate using excitation/emission wavelengths of 330 nm/440 nm respectively. Fluorescence intensity was recorded for 60 min, using a time interval of 43 sec.
The inhibition activity of the test compounds were evaluated using the EC50 values, calculated according to the dose-response curve of the test compounds, fitted using the “log(inhibitor)−response (variable slope)” equation in GraphPadPrism software (GraphPad Software, Inc.).
The percentage inhibition was calculated using the following equation:
[formula] where, Mean (BG) is the average value of the fluorescence intensity of the background wells and Mean (PC) is the average value of the fluorescence intensity of the positive control wells.
Table 4 provides the EC50 values of various compounds disclosed herein.

human plasma kallikrein, sequence (P03952 391-638): as the sequence (P03952 391-638) above
human plasma kallikrein, sequence (P03952 20-390 partner): as the sequence (P03952 20-390 partner) above

Compound | IC50 (human plasma kallikrein) [nM] | EC50 [1] [nM]
Cc1nc(N)ccc1CNC(=O)c1ccnc(Cc2cc3cc(Cl)cnc3cn2)c1 [Example 149, N-((6-amino-2-methylpyridin-3-yl)methyl)-2-((3-chloro-1,7-naphthyridin-6-yl)methyl)isonicotinamide] | < 100 | < 100
Cc1cc(N)nc(C)c1CNC(=O)c1ccnc(Cc2cc(C(C)(C)O)c3ncc(Cl)cc3c2)c1 [Example 219, N-((6-amino-2,4-dimethylpyridin-3-yl)methyl)-2-((3-chloro-8-(2-hydroxypropan-2-yl)quinolin-6-yl)methyl)isonicotinamide] | < 100 | < 100
CC(C)(O)c1cc(Cc2cc(C(=O)NCc3ccc4c(N)nccc4c3)ccn2)cc2cc(Cl)cnc12 [Example 224, N-((1-aminoisoquinolin-6-yl)methyl)-2-((3-chloro-8-(2-hydroxypropan-2-yl)quinolin-6-yl)methyl)isonicotinamide] | < 100 | < 100
Nc1nccc2c(F)c(CNC(=O)c3ccnc(Cc4ccc5ncc(Cl)cc5c4)c3)ccc12 [Example 178, N-((1-amino-5-fluoroisoquinolin-6-yl)methyl)-2-((3-chloroquinolin-6-yl)methyl)isonicotinamide] | < 100 | < 100
Cc1cc(N)nc(C)c1CNC(=O)c1ccnc(Cc2ccc3ncc(C(F)(F)F)cc3c2)c1 [Example 228, N-((6-amino-2,4-dimethylpyridin-3-yl)methyl)-2-((3-(trifluoromethyl)quinolin-6-yl)methyl)isonicotinamide] | < 100 | < 100
Cc1cc(N)nc(C)c1CNC(=O)c1ccnc(Cc2cc(N)c3ncc(Cl)cc3c2)c1 [Example 217, N-((6-amino-2,4-dimethylpyridin-3-yl)methyl)-2-((8-amino-3-chloroquinolin-6-yl)methyl)isonicotinamide] | < 100 | < 100
Cc1cc(N)nc(C)c1CNC(=O)c1cc(CO)nc(Cc2ccc3ncc(Cl)cc3c2)c1 [Example 212, N-((6-amino-2,4-dimethylpyridin-3-yl)methyl)-2-((3-chloroquinolin-6-yl)methyl)-6-(hydroxymethyl)isonicotinamide] | < 100 | < 100
Nc1nccc2cc(CNC(=O)c3ccnc(Cc4ccc5ncc(C(F)(F)F)cc5c4)c3)c(F)cc12 [Example 182, N-((1-amino-7-fluoroisoquinolin-6-yl)methyl)-2-((3-(trifluoromethyl)quinolin-6-yl)methyl)isonicotinamide] | < 100 | 100 to 1000
Cc1cc(N)nc(C)c1CNC(=O)c1cc(Cc2ccc3ncc(Cl)cc3c2)nc(C(N)=O)c1 [Example 208, N^4-((6-amino-2,4-dimethylpyridin-3-yl)methyl)-6-((3-chloroquinolin-6-yl)methyl)pyridine-2,4-dicarboxamide] | < 100 | < 100
Cc1cc(N)nc(C)c1CNC(=O)c1ccnc(Cc2cnc3ncc(Cl)cc3c2)c1 [Example 204, N-((6-amino-2,4-dimethylpyridin-3-yl)methyl)-2-((6-chloro-1,8-naphthyridin-3-yl)methyl)isonicotinamide] | < 100 | < 100
Nc1nc(C(F)(F)F)n2cc(CNC(=O)c3ccnc(Cc4ccc5ncc(Cl)cc5c4)c3)ccc12 [Example 186, N-((1-amino-3-(trifluoromethyl)imidazo[1,5-a]pyridin-6-yl)methyl)-2-((3-chloroquinolin-6-yl)methyl)isonicotinamide] | < 100 | < 100
Cc1nc(N)ccc1CNC(=O)c1ccnc(Cc2cc(C(C)(C)O)c3ncc(Cl)cc3c2)c1 [Example 220, N-((6-amino-2-methylpyridin-3-yl)methyl)-2-((3-chloro-8-(2-hydroxypropan-2-yl)quinolin-6-yl)methyl)isonicotinamide] | < 100 | < 100
CC(C)(O)c1cc(Cc2cc(C(=O)NCc3cc4c(Cl)c[nH]c4cc3F)ccn2)cc2cc(Cl)cnc12 [Example 221, N-((3-chloro-6-fluoro-1H-indol-5-yl)methyl)-2-((3-chloro-8-(2-hydroxypropan-2-yl)quinolin-6-yl)methyl)isonicotinamide] | < 100 | 100 to 1000
Cc1nc(N)ccc1CNC(=O)c1ccnc(Cc2ccc3ncc(CC(F)F)cc3c2)c1 [Example 279, N-((6-amino-2-methylpyridin-3-yl)methyl)-2-((3-(2,2-difluoroethyl)quinolin-6-yl)methyl)isonicotinamide] | < 100 | 100 to 1000
Cc1cnc2c(S(N)(=O)=O)cc(Cc3cc(C(=O)NCc4cnc5[nH]cc(Cl)c5c4)ccn3)cc2c1 [Example 291, N-((3-chloro-1H-pyrrolo[2,3-b]pyridin-5-yl)methyl)-2-((3-methyl-8-sulfamoylquinolin-6-yl)methyl)isonicotinamide] | < 100 | < 100
Cc1nc(N)ccc1CNC(=O)c1ccnc(Cc2cc(Cl)c3ncc(Cl)cc3c2)c1 [Example 101, N-((6-amino-2-methylpyridin-3-yl)methyl)-2-((3,8-dichloroquinolin-6-yl)methyl)isonicotinamide] |  | < 100

Results, then the molecule that gave them:

IC50 (human plasma kallikrein) [nM] | EC50 [1] [nM] | Compound
< 100 | < 100 | Cc1cc(N)nc(C)c1CNC(=O)c1ccnc(Cc2cc(CN)c3ncc(Cl)cc3c2)c1 [Example 241, N-((6-amino-2,4-dimethylpyridin-3-yl)methyl)-2-((8-(aminomethyl)-3-chloroquinolin-6-yl)methyl)isonicotinamide]
< 100 | < 100 | Nc1nccc2cc(CNC(=O)c3ccnc(Cc4ccc5ncc(C6CC6)cc5c4)c3)ccc12 [Example 247, N-((1-aminoisoquinolin-6-yl)methyl)-2-((3-cyclopropylquinolin-6-yl)methyl)isonicotinamide]
< 100 | 100 to 1000 | Cc1cc(N)nc(C)c1CNC(=O)c1ccnc(C(O)c2ccc3ncc(Cl)cc3c2)c1 (centres unmarked) [Example 275, N-((6-amino-2,4-dimethylpyridin-3-yl)methyl)-2-((3-chloroquinolin-6-yl)(hydroxy)methyl)isonicotinamide]
< 100 | 100 to 1000 | O=C(NCc1ccc2[nH]cc(Cl)c2c1F)c1ccnc(Cc2ccc3ncc(C4CC4)cc3c2)c1 [Example 248, N-((3-chloro-4-fluoro-1H-indol-5-yl)methyl)-2-((3-cyclopropylquinolin-6-yl)methyl)isonicotinamide]
< 100 | < 100 | Cc1cc(N)nc(C)c1CNC(=O)c1ccnc(Cc2cc(S(N)(=O)=O)c3ncc(Cl)cc3c2)c1 [Example 235, N-((6-amino-2,4-dimethylpyridin-3-yl)methyl)-2-((3-chloro-8-sulfamoylquinolin-6-yl)methyl)isonicotinamide]
< 100 | < 100 | Cc1cc(N)nc(C)c1CNC(=O)c1ccnc(Cc2ccc3nc(C)c(Cl)cc3c2)c1 [Example 238, N-((6-amino-2,4-dimethylpyridin-3-yl)methyl)-2-((3-chloro-2-methylquinolin-6-yl)methyl)isonicotinamide]
< 100 | 100 to 1000 | O=C(NCc1ccc2[nH]cc(Cl)c2c1F)c1ccnc(Cc2ccc3ncc(C(F)(F)F)cc3c2)c1 [Example 234, N-((3-chloro-4-fluoro-1H-indol-5-yl)methyl)-2-((3-(trifluoromethyl)quinolin-6-yl)methyl)isonicotinamide]
< 100 | < 100 | Cc1nc(N)ccc1CNC(=O)c1ccnc(Cc2cc(S(N)(=O)=O)c3ncc(Cl)cc3c2)c1 [Example 236]
< 100 | 100 to 1000 | O=C(NCc1cc2c(Cl)c[nH]c2cc1F)c1ccnc(Cc2ccc3ncc(C4CC4)cc3c2)c1 [Example 245, N-((3-chloro-6-fluoro-1H-indol-5-yl)methyl)-2-((3-cyclopropylquinolin-6-yl)methyl)isonicotinamide]
< 100 | < 100 | Cc1cc(N)nc(C)c1CNC(=O)c1ccnc(Cc2ccc3ncc(C(C)C)cc3c2)c1 [Example 254, N-((6-amino-2,4-dimethylpyridin-3-yl)methyl)-2-((3-isopropylquinolin-6-yl)methyl)isonicotinamide]
< 100 | 100 to 1000 | O=C(NCc1n[nH]c2ccc(Cl)cc12)c1ccnc(Cc2ccc3ncc(C4CC4)cc3c2)c1 [Example 249, N-((5-chloro-1H-indazol-3-yl)methyl)-2-((3-cyclopropylquinolin-6-yl)methyl)isonicotinamide]
